From the OligoGym collection
Oligonucleotides are given in HELM: sugar(base)linkage, 5' to 3'; d 2'-deoxyribose, r ribose, m 2'-O-methylribose, p phosphate. ss, as = sense and antisense strand

Biological target: Mmp7 (rat)
Test: reporter assay of Huesken 2005
Details: siRNA
Further: test concentration or dose not given here.

Substance	normalised inhibition (eCFP-eYFP dual reporter)
RNA1{r(A)p.r(A)p.r(A)p.r(A)p.r(C)p.r(A)p.r(A)p.r(A)p.r(G)p.r(A)p.r(A)p.r(G)p.r(G)p.r(C)p.r(C)p.r(A)p.r(C)p.r(C)p.r(A)p.d(T)p.d(T)}|RNA2{r(U)p.r(G)p.r(G)p.r(U)p.r(G)p.r(G)p.r(C)p.r(C)p.r(U)p.r(U)p.r(C)p.r(U)p.r(U)p.r(U)p.r(G)p.r(U)p.r(U)p.r(U)p.r(U)p.d(A)p.d(G)}$$$RNA1{StrandType:ss}|RNA2{StrandType:as}$	45.7%
RNA1{r(A)p.r(A)p.r(A)p.r(C)p.r(U)p.r(G)p.r(A)p.r(G)p.r(G)p.r(G)p.r(A)p.r(A)p.r(A)p.r(U)p.r(G)p.r(C)p.r(A)p.r(G)p.r(A)p.d(T)p.d(T)}|RNA2{r(U)p.r(C)p.r(U)p.r(G)p.r(C)p.r(A)p.r(U)p.r(U)p.r(U)p.r(C)p.r(C)p.r(C)p.r(U)p.r(C)p.r(A)p.r(G)p.r(U)p.r(U)p.r(U)p.d(G)p.d(T)}$$$RNA1{StrandType:ss}|RNA2{StrandType:as}$	116%
RNA1{r(A)p.r(A)p.r(A)p.r(U)p.r(U)p.r(U)p.r(U)p.r(A)p.r(C)p.r(C)p.r(U)p.r(U)p.r(C)p.r(A)p.r(C)p.r(G)p.r(A)p.r(C)p.r(U)p.d(T)p.d(T)}|RNA2{r(A)p.r(G)p.r(U)p.r(C)p.r(G)p.r(U)p.r(G)p.r(A)p.r(A)p.r(G)p.r(G)p.r(U)p.r(A)p.r(A)p.r(A)p.r(A)p.r(U)p.r(U)p.r(U)p.d(C)p.d(C)}$$$RNA1{StrandType:ss}|RNA2{StrandType:as}$	74.4%
RNA1{r(A)p.r(A)p.r(C)p.r(A)p.r(A)p.r(A)p.r(G)p.r(A)p.r(A)p.r(G)p.r(G)p.r(C)p.r(C)p.r(A)p.r(C)p.r(C)p.r(A)p.r(G)p.r(U)p.d(T)p.d(T)}|RNA2{r(A)p.r(C)p.r(U)p.r(G)p.r(G)p.r(U)p.r(G)p.r(G)p.r(C)p.r(C)p.r(U)p.r(U)p.r(C)p.r(U)p.r(U)p.r(U)p.r(G)p.r(U)p.r(U)p.d(T)p.d(T)}$$$RNA1{StrandType:ss}|RNA2{StrandType:as}$	87.1%
RNA1{r(A)p.r(A)p.r(C)p.r(U)p.r(U)p.r(C)p.r(C)p.r(C)p.r(A)p.r(U)p.r(U)p.r(U)p.r(G)p.r(A)p.r(U)p.r(G)p.r(G)p.r(G)p.r(C)p.d(T)p.d(T)}|RNA2{r(G)p.r(C)p.r(C)p.r(C)p.r(A)p.r(U)p.r(C)p.r(A)p.r(A)p.r(A)p.r(U)p.r(G)p.r(G)p.r(G)p.r(A)p.r(A)p.r(G)p.r(U)p.r(U)p.d(G)p.d(T)}$$$RNA1{StrandType:ss}|RNA2{StrandType:as}$	0.2%
RNA1{r(A)p.r(A)p.r(G)p.r(C)p.r(C)p.r(C)p.r(A)p.r(G)p.r(G)p.r(U)p.r(G)p.r(U)p.r(G)p.r(G)p.r(A)p.r(G)p.r(U)p.r(G)p.r(C)p.d(T)p.d(T)}|RNA2{r(G)p.r(C)p.r(A)p.r(C)p.r(U)p.r(C)p.r(C)p.r(A)p.r(C)p.r(A)p.r(C)p.r(C)p.r(U)p.r(G)p.r(G)p.r(G)p.r(C)p.r(U)p.r(U)p.d(C)p.d(T)}$$$RNA1{StrandType:ss}|RNA2{StrandType:as}$	47.5%
RNA1{r(A)p.r(A)p.r(G)p.r(G)p.r(A)p.r(U)p.r(G)p.r(A)p.r(G)p.r(U)p.r(A)p.r(C)p.r(U)p.r(G)p.r(G)p.r(A)p.r(C)p.r(G)p.r(G)p.d(T)p.d(T)}|RNA2{r(C)p.r(C)p.r(G)p.r(U)p.r(C)p.r(C)p.r(A)p.r(G)p.r(U)p.r(A)p.r(C)p.r(U)p.r(C)p.r(A)p.r(U)p.r(C)p.r(C)p.r(U)p.r(U)p.d(G)p.d(T)}$$$RNA1{StrandType:ss}|RNA2{StrandType:as}$	75.8%
RNA1{r(A)p.r(A)p.r(G)p.r(G)p.r(C)p.r(C)p.r(A)p.r(C)p.r(C)p.r(A)p.r(G)p.r(U)p.r(G)p.r(C)p.r(A)p.r(G)p.r(U)p.r(G)p.r(G)p.d(T)p.d(T)}|RNA2{r(C)p.r(C)p.r(A)p.r(C)p.r(U)p.r(G)p.r(C)p.r(A)p.r(C)p.r(U)p.r(G)p.r(G)p.r(U)p.r(G)p.r(G)p.r(C)p.r(C)p.r(U)p.r(U)p.d(C)p.d(T)}$$$RNA1{StrandType:ss}|RNA2{StrandType:as}$	22.3%
RNA1{r(A)p.r(A)p.r(G)p.r(U)p.r(G)p.r(A)p.r(C)p.r(C)p.r(G)p.r(C)p.r(A)p.r(C)p.r(U)p.r(U)p.r(C)p.r(A)p.r(G)p.r(U)p.r(G)p.d(T)p.d(T)}|RNA2{r(C)p.r(A)p.r(C)p.r(U)p.r(G)p.r(A)p.r(A)p.r(G)p.r(U)p.r(G)p.r(C)p.r(G)p.r(G)p.r(U)p.r(C)p.r(A)p.r(C)p.r(U)p.r(U)p.d(C)p.d(T)}$$$RNA1{StrandType:ss}|RNA2{StrandType:as}$	79.7%
RNA1{r(A)p.r(A)p.r(G)p.r(U)p.r(U)p.r(C)p.r(U)p.r(U)p.r(C)p.r(G)p.r(G)p.r(U)p.r(U)p.r(U)p.r(G)p.r(C)p.r(C)p.r(G)p.r(G)p.d(T)p.d(T)}|RNA2{r(C)p.r(C)p.r(G)p.r(G)p.r(C)p.r(A)p.r(A)p.r(A)p.r(C)p.r(C)p.r(G)p.r(A)p.r(A)p.r(G)p.r(A)p.r(A)p.r(C)p.r(U)p.r(U)p.d(C)p.d(T)}$$$RNA1{StrandType:ss}|RNA2{StrandType:as}$	1.8%
RNA1{r(A)p.r(A)p.r(U)p.r(G)p.r(C)p.r(A)p.r(G)p.r(A)p.r(A)p.r(G)p.r(C)p.r(C)p.r(C)p.r(A)p.r(G)p.r(G)p.r(U)p.r(G)p.r(U)p.d(T)p.d(T)}|RNA2{r(A)p.r(C)p.r(A)p.r(C)p.r(C)p.r(U)p.r(G)p.r(G)p.r(G)p.r(C)p.r(U)p.r(U)p.r(C)p.r(U)p.r(G)p.r(C)p.r(A)p.r(U)p.r(U)p.d(A)p.d(T)}$$$RNA1{StrandType:ss}|RNA2{StrandType:as}$	86.1%
RNA1{r(A)p.r(A)p.r(U)p.r(U)p.r(U)p.r(U)p.r(A)p.r(C)p.r(C)p.r(U)p.r(U)p.r(C)p.r(A)p.r(C)p.r(G)p.r(A)p.r(C)p.r(U)p.r(C)p.d(T)p.d(T)}|RNA2{r(G)p.r(A)p.r(G)p.r(U)p.r(C)p.r(G)p.r(U)p.r(G)p.r(A)p.r(A)p.r(G)p.r(G)p.r(U)p.r(A)p.r(A)p.r(A)p.r(A)p.r(U)p.r(U)p.d(T)p.d(C)}$$$RNA1{StrandType:ss}|RNA2{StrandType:as}$	76.1%
RNA1{r(A)p.r(C)p.r(A)p.r(G)p.r(G)p.r(C)p.r(G)p.r(C)p.r(A)p.r(G)p.r(A)p.r(A)p.r(U)p.r(U)p.r(A)p.r(U)p.r(C)p.r(U)p.r(U)p.d(T)p.d(T)}|RNA2{r(A)p.r(A)p.r(G)p.r(A)p.r(U)p.r(A)p.r(A)p.r(U)p.r(U)p.r(C)p.r(U)p.r(G)p.r(C)p.r(G)p.r(C)p.r(C)p.r(U)p.r(G)p.r(U)p.d(T)p.d(C)}$$$RNA1{StrandType:ss}|RNA2{StrandType:as}$	75.6%
RNA1{r(A)p.r(C)p.r(A)p.r(G)p.r(U)p.r(C)p.r(C)p.r(U)p.r(A)p.r(A)p.r(G)p.r(U)p.r(G)p.r(G)p.r(C)p.r(A)p.r(U)p.r(U)p.r(C)p.d(T)p.d(T)}|RNA2{r(G)p.r(A)p.r(A)p.r(U)p.r(G)p.r(C)p.r(C)p.r(A)p.r(C)p.r(U)p.r(U)p.r(A)p.r(G)p.r(G)p.r(A)p.r(C)p.r(U)p.r(G)p.r(U)p.d(T)p.d(T)}$$$RNA1{StrandType:ss}|RNA2{StrandType:as}$	65.7%
RNA1{r(A)p.r(C)p.r(C)p.r(G)p.r(G)p.r(G)p.r(G)p.r(C)p.r(C)p.r(A)p.r(G)p.r(G)p.r(C)p.r(C)p.r(U)p.r(C)p.r(G)p.r(G)p.r(C)p.d(T)p.d(T)}|RNA2{r(G)p.r(C)p.r(C)p.r(G)p.r(A)p.r(G)p.r(G)p.r(C)p.r(C)p.r(U)p.r(G)p.r(G)p.r(C)p.r(C)p.r(C)p.r(C)p.r(G)p.r(G)p.r(U)p.d(G)p.d(C)}$$$RNA1{StrandType:ss}|RNA2{StrandType:as}$	11%
RNA1{r(A)p.r(C)p.r(U)p.r(C)p.r(A)p.r(G)p.r(G)p.r(C)p.r(G)p.r(U)p.r(G)p.r(A)p.r(A)p.r(C)p.r(U)p.r(U)p.r(C)p.r(C)p.r(U)p.d(T)p.d(T)}|RNA2{r(A)p.r(G)p.r(G)p.r(A)p.r(A)p.r(G)p.r(U)p.r(U)p.r(C)p.r(A)p.r(C)p.r(G)p.r(C)p.r(C)p.r(U)p.r(G)p.r(A)p.r(G)p.r(U)p.d(C)p.d(C)}$$$RNA1{StrandType:ss}|RNA2{StrandType:as}$	73.1%
RNA1{r(A)p.r(C)p.r(U)p.r(C)p.r(U)p.r(C)p.r(U)p.r(G)p.r(G)p.r(G)p.r(U)p.r(C)p.r(U)p.r(G)p.r(G)p.r(G)p.r(U)p.r(C)p.r(A)p.d(T)p.d(T)}|RNA2{r(U)p.r(G)p.r(A)p.r(C)p.r(C)p.r(C)p.r(A)p.r(G)p.r(A)p.r(C)p.r(C)p.r(C)p.r(A)p.r(G)p.r(A)p.r(G)p.r(A)p.r(G)p.r(U)p.d(G)p.d(G)}$$$RNA1{StrandType:ss}|RNA2{StrandType:as}$	61.8%
RNA1{r(A)p.r(C)p.r(U)p.r(C)p.r(U)p.r(U)p.r(C)p.r(U)p.r(G)p.r(U)p.r(U)p.r(C)p.r(C)p.r(C)p.r(A)p.r(G)p.r(U)p.r(U)p.r(C)p.d(T)p.d(T)}|RNA2{r(G)p.r(A)p.r(A)p.r(C)p.r(U)p.r(G)p.r(G)p.r(G)p.r(A)p.r(A)p.r(C)p.r(A)p.r(G)p.r(A)p.r(A)p.r(G)p.r(A)p.r(G)p.r(U)p.d(G)p.d(A)}$$$RNA1{StrandType:ss}|RNA2{StrandType:as}$	81.4%
RNA1{r(A)p.r(C)p.r(U)p.r(G)p.r(G)p.r(A)p.r(C)p.r(G)p.r(G)p.r(A)p.r(U)p.r(G)p.r(G)p.r(U)p.r(G)p.r(A)p.r(G)p.r(G)p.r(A)p.d(T)p.d(T)}|RNA2{r(U)p.r(C)p.r(C)p.r(U)p.r(C)p.r(A)p.r(C)p.r(C)p.r(A)p.r(U)p.r(C)p.r(C)p.r(G)p.r(U)p.r(C)p.r(C)p.r(A)p.r(G)p.r(U)p.d(A)p.d(C)}$$$RNA1{StrandType:ss}|RNA2{StrandType:as}$	46.5%
RNA1{r(A)p.r(C)p.r(U)p.r(U)p.r(C)p.r(A)p.r(G)p.r(U)p.r(C)p.r(U)p.r(U)p.r(A)p.r(C)p.r(A)p.r(A)p.r(A)p.r(G)p.r(G)p.r(A)p.d(T)p.d(T)}|RNA2{r(U)p.r(C)p.r(C)p.r(U)p.r(U)p.r(U)p.r(G)p.r(U)p.r(A)p.r(A)p.r(G)p.r(A)p.r(C)p.r(U)p.r(G)p.r(A)p.r(A)p.r(G)p.r(U)p.d(C)p.d(T)}$$$RNA1{StrandType:ss}|RNA2{StrandType:as}$	112%
